Measurements as given in patent US11339156B2, “3-(1H-pyrazol-4-yl)pyridine allosteric modulators of the M4 muscarinic acetylcholine receptor” (Merck Sharp & Dohme Corp., priority 2017, dated 2022).

Target: T1, human M4 muscarinic acetylcholine receptor (Homo sapiens, UniProt P08173)
T1 construct: expressed in transfected cells
T1 sequence (P08173 1-479): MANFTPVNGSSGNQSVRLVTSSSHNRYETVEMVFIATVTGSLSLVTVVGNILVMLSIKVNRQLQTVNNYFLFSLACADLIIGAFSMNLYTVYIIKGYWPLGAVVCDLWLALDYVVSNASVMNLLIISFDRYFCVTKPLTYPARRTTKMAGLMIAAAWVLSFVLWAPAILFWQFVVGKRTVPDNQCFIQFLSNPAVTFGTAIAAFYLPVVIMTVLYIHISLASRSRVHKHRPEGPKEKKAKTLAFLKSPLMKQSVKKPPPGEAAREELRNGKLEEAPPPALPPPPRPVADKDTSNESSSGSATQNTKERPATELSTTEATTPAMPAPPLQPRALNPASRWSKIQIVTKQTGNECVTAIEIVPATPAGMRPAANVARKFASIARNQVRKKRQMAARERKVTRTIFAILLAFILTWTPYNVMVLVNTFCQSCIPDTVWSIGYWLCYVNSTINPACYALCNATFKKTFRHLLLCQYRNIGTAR
Experiment: human FLIPR-based M4 PAM assay (CHO-K1 cells with human M4 receptor and Gαqi5, calcium dye fluorescence)
Format: cell-based
Settings: inflection point of 4 parameter logistic fit; acetylcholine added at 20% of maximum response; read-out: M4PAM IP
Protocol: In a typical experiment the M4 muscarinic acetylcholine receptor modulating activity of the compounds of the present invention was determined in accordance with the following experimental method. CHO-K1 cells stably transfected with human M4 receptor and chimeric G-protein Gαqi5 (Coward P, et al., Analytical Biochemistry, 270:242-248 (1999)) are thawed from liquid N2 storage, resuspended in growth medium, plated in black, clear bottom 384 well plates, and incubated 16-20 hours at 37° C., 5% CO2. On the day of assay, growth medium is removed, the cells are washed 2 times with wash buffer, and cells are incubated in dye loading buffer at 37° C., 5% CO2 for ˜1 hour. Following dye loading the cell plates are placed in a FLIPR Tetra instrument and while monitoring dye fluorescence (excitation […]), 10 uL of test substance at increasing concentrations is added, and fluorescence values are recorded for 4 min. Next, 10 uL of acetylcholine is added (final concentration calculated so as to achieve 20% of the maximum acetycholine response), and the fluorescence reading is continued for 3.5 min. In some cases, a third addition of acetylcholine (final concentration calculated to achieve 70% of the maximal acetylcholine response) is performed. The resulting dose response curves are fit to a 4 parameter logistic equation and the final result is determined as the inflection point (IP) of the curve
CHO-K1 cells stably transfected with human M4 receptor and chimeric G-protein Gαqi5 are thawed from liquid N2 storage, resuspended in growth medium, plated in black, clear bottom 384 well plates, and incubated 16-20 hours at 37° C., 5% CO2.
On the day of assay, growth medium is removed, the cells are washed 2 times with wash buffer, and cells are incubated in dye loading buffer at 37° C., 5% CO2 for ˜1 h. Following dye loading the cell plates are placed in a FLIPR Tetra instrument and while monitoring dye fluorescence ([…]), 10 uL of test substance at increasing concentrations is added, and fluorescence values are recorded for 4 min. Next, 10 uL of acetylcholine is added (final concentration calculated so as to achieve 20% of the maximum acetycholine response), and the fluorescence reading is continued for 3.5 min. In some cases, a third addition of acetylcholine (final concentration calculated to achieve 70% of the maximal acetylcholine response) is performed.

| SMILES | EC50 |
| --- | --- |
| Cc1nc2cc(-c3nc(C#N)ccc3-c3cnn(CC4(C(F)(F)F)CC4)c3)ccc2o1 [Example 55, 6-(2-methyl-1,3-benzoxazol-5-yl)-5-(1-{[1-(trifluoromethyl)cyclo-propyl]methyl}-1H-pyrazol-4-yl)pyridine-2-carbonitrile] | 176 nM |
| N#Cc1ccc(-c2cnn(CC3(C(F)(F)F)CC3)c2)c(-c2ccn3ccnc3c2)n1 [Example 56, 6-imidazo[1,2-a]pyridin-7-yl-5-(1-{[1-(trifluoromethyl)cyclo-propyl]methyl}-1H-pyrazol-4-yl)pyridine-2-carbonitrile] | 127 nM |
| FC(F)(F)C1(Cn2cc(-c3cc(Cl)cnc3-c3ccn4ccnc4c3)cn2)CC1 [Example 57, 7-[5-chloro-3-(1-{[1-(trifluoromethyl)cyclo-propyl]methyl}-1H-pyrazol-4-yl)pyridin-2-yl]imidazo[1,2-a]pyridine] | 268 nM |
| FC(F)(F)C1(Cn2cc(-c3ccc(Cl)nc3-c3ccn4ccnc4c3)cn2)CC1 [Example 59, 7-[6-chloro-3-(1-{[1-(trifluoromethyl)cyclo-propyl]methyl}-1H-pyrazol-4-yl)pyridin-2-yl]imidazo[1,2-a]pyridine] | 65.4 nM |
| Cc1nc2cc(-c3ncc(F)cc3-c3cnn(CC4CC(F)(F)C4)c3)ccc2n1C [Example 61, 5-(3-(1-((3,3-difluorocyclobutyl)methyl)-1H-pyrazol-4-yl)-5-fluoropyridin-2-yl)-1,2-dimethyl-1H-benzo[d]imidazole] | 161 nM |
| Cc1nc2cc(-c3nc(C#N)ccc3-c3cnn(CC4(C(C)(F)F)CC4)c3)ccc2n1C [Example 62, 5-(1-{[1-(1,1-difluoroethyl)cyclo-propyl]methyl}-1H-pyrazol-4-yl)-6-(1,2-dimethyl-1H-benzimidazol-5-yl)pyridine-2-carbonitrile] | 66.1 nM |
| CN1Cc2ncc(-c3nc(C#N)ccc3-c3cnn(CC(C)(C)C)c3)cc2C1=O [Example 65, 5-[1-(2,2-dimethylpropyl)-1H-pyrazol-4-yl]-6-(6-methyl-5-oxo-6,7-dihydro-5H-pyrrolo[3,4-b]pyridin-3-yl)pyridine-2-carbonitrile] | 93.1 nM |
| Cn1nc2ccc(-c3nc(C#N)ccc3-c3cnn(CC(C)(C)C)c3)cc2n1 [Example 69, 5-[1-(2,2-dimethylpropyl)-1H-pyrazol-4-yl]-6-(2-methyl-2H-benzotriazol-5-yl)pyridine-2-carbonitrile] | 243 nM |
| Cc1nnc2cc(-c3nc(C#N)ccc3-c3cnn(CC(C)(C)C)c3)ccn12 [Example 70, 5-[1-(2,2-dimethylpropyl)-1H-pyrazol-4-yl]-6-(3-methyl[1,2,4]triazolo[4,3-a]pyridin-7-yl)pyridine-2-carbonitrile] | 102 nM |
| CC(C)(C)Cn1cc(-c2ccc(C#N)nc2-c2ccn3ncnc3c2)cn1 [Example 72, 5-[1-(2,2-dimethylpropyl)-1H-pyrazol-4-yl]-6-[1,2,4]triazolo[1,5-a]pyridin-7-ylpyridine-2-carbonitrile] | 136 nM |
| CC(C)(C)Cn1cc(-c2ccc(C#N)nc2-c2ccn3nc(CO)nc3c2)cn1 [Example 73, 5-[1-(2,2-dimethylpropyl)-1H-pyrazol-4-yl]-6-[2-(hydroxymethyl)[1,2,4]triazolo[1,5-a]pyridin-7-yl]pyridine-2-carbonitrile] | 126 nM |
| CC(C)CCn1cc(-c2cccnc2-c2ccc3c(c2)C(=O)NC3)cn1 [Example 74, 6-{3-[1-(3-methylbutyl)-1H-pyrazol-4-yl]pyridin-2-yl}-2,3-dihydro-1H-isoindol-1-one] | 337 nM |
| Cc1ccc(-c2cnn(CCC(C)C)c2)c(-c2ccc3c(c2)CNC3)n1 [Example 75, 5-{6-methyl-3-[1-(3-methylbutyl)-1H-pyrazol-4-yl]pyridin-2-yl}-2,3-dihydro-1H-isoindole] | 106 nM |
| Cc1ccc(-c2cnn(CCC(C)C)c2)c(-c2ccc3c(c2)CN(C(=O)OC(C)(C)C)C3)n1 [Example 76, tert-butyl 5-{6-methyl-3-[1-(3-methylbutyl)-1H-pyrazol-4-yl]pyridin-2-yl}-1,3-dihydro-2H-isoindole-2-carboxylate] | 76 nM |
| CC(C)CCn1cc(-c2cc(Cl)cnc2-c2ccc3cn(C)nc3c2)cn1 [Example 77, 6-{5-chloro-3-[1-(3-methylbutyl)-1H-pyrazol-4-yl]pyridin-2-yl}-2-methyl-2H-indazole] | 278 nM |
| CC(C)CCn1cc(-c2cc(Cl)cnc2-c2ccc3scnc3c2)cn1 [Example 78, 5-{5-chloro-3-[1-(3-methylbutyl)-1H-pyrazol-4-yl]pyridin-2-yl}-1,3-benzothiazole] | 204 nM |

Continued by falling EC50, values first:

| EC50 | SMILES |
| --- | --- |
| 64.3 nM | Cc1cc(-c2cnn(CC3(C(F)(F)F)CC3)c2)c(-c2ccn3ccnc3c2)nc1Cl [Example 60, 7-[6-chloro-5-methyl-3-(1-{[1-(trifluoromethyl)cyclo-propyl]methyl}-1H-pyrazol-4-yl)pyridin-2-yl]imidazo[1,2-a]pyridine] |
| 55.8 nM | Cc1ccc(-c2cnn(CC(C)(C)C)c2)c(-c2ccn3cnnc3c2)n1 [Example 71, 7-{3-[1-(2,2-dimethylpropyl)-1H-pyrazol-4-yl]-6-methylpyridin-2-yl}[1,2,4]triazolo[4,3-a]pyridine] |
| 55.8 nM | Cn1nnc2cc(-c3nc(C#N)ccc3-c3cnn(CC(C)(C)C)c3)ccc21 [Example 68, 5-[1-(2,2-dimethylpropyl)-1H-pyrazol-4-yl]-6-(1-methyl-1H-benzotriazol-5-yl)pyridine-2-carbonitrile] |
| 54.4 nM | CC(C)(C)Cn1cc(-c2ccc(C#N)nc2-c2ccn3cc(C(F)(F)F)nc3c2)cn1 [Example 66, 5-[1-(2,2-dimethylpropyl)-1H-pyrazol-4-yl]-6-[2-(trifluoromethyl)imidazo [1,2-a]pyridin-7-yl]pyridine-2-carbonitrile] |
| 49.1 nM | Cc1cn2ccc(-c3nc(C#N)ccc3-c3cnn(CC4(C(F)F)CC4)c3)cc2n1 [Example 58, 5-(1-{[1-(difluoromethyl)cyclo-propyl]methyl}-1H-pyrazol-4-yl)-6-(2-methylimidazo[1,2-a]pyridin-7-yl)pyridine-2-carbonitrile] |
| 46.8 nM | Cc1nc2cc(-c3nc(C#N)ccc3-c3cnn(CC(C)(C)C)c3)ccn2n1 [Example 63, 6-(2-methyl-[1,2,4]triazolo[1,5-a]pyridin-7-yl)-5-(1-neopentyl-1H-pyrazol-4-yl)picolinonitrile] |
| 44.7 nM | CN1Cc2ccc(-c3nc(C#N)c(F)cc3-c3cnn(CC4(C(F)(F)F)CC4)c3)cc2C1=O [Example 54, 3-fluoro-6-(2-methyl-3-oxo-2,3-dihydro-1H-isoindol-5-yl)-5-(1-{[1-(trifluoromethyl)cyclo-propyl]methyl}-1H-pyrazol-4-yl)pyridine-2-carbonitrile] |
| 17.7 nM | CC(C)(C)Cn1cc(-c2ccc(C#N)nc2-c2ccn3cc(Cl)nc3c2)cn1 [Example 67, 6-(2-chloroimidazo[1,2-a]pyridin-7-yl)-5-[1-(2,2-dimethylpropyl)-1H-pyrazol-4-yl]pyridine-2-carbonitrile] |
| 14.6 nM | CC(C)(C)Cn1cc(-c2ccc(C#N)nc2-c2ccn3cc(C(F)F)nc3c2)cn1 [Example 64, 6-[2-(difluoromethyl)imidazo [1,2-a]pyridin-7-yl]-5-[1-(2,2-dimethylpropyl)-1H-pyrazol-4-yl]pyridine-2-carbonitrile] |
